Data from PubChem BioAssay (NCI).
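Five compound concentrations were applied to cells in 96-well plates for 48 hours; endpoints were derived by simple linear interpolation of the resulting dose-response curve. GI50 = concentration required for 50% inhibition of growth. At the TGI there is no net growth.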

Key:
Assay in all cases: NCI anticancer screen, dose series, 48 h
786-0 renal = system: 786-0 renal
A549 NSCLC = system: A549 NSCLC
ACHN renal = system: ACHN renal
BT-549 breast = system: BT-549 breast
CAKI-1 renal = system: CAKI-1 renal
CCRF-CEM leukemia = system: CCRF-CEM leukemia
COLO 205 colon = system: COLO 205 colon
DU-145 prostate = system: DU-145 prostate
EKVX NSCLC = system: EKVX NSCLC
HCC-2998 colon = system: HCC-2998 colon
HCT-116 colon = system: HCT-116 colon
HCT-15 colon = system: HCT-15 colon
HL-60(TB) leukemia = system: HL-60(TB) leukemia
HOP-62 NSCLC = system: HOP-62 NSCLC
HOP-92 NSCLC = system: HOP-92 NSCLC
HS 578T breast = system: HS 578T breast
HT29 colon = system: HT29 colon
IGROV1 ovarian = system: IGROV1 ovarian
K-562 leukemia = system: K-562 leukemia
KM12 colon = system: KM12 colon
LOX IMVI melanoma = system: LOX IMVI melanoma
MALME-3M melanoma = system: MALME-3M melanoma
MCF7 breast = system: MCF7 breast
MDA-MB-231 breast = system: MDA-MB-231 breast
MDA-MB-435 = system: MDA-MB-435
MOLT-4 leukemia = system: MOLT-4 leukemia
NCI-H226 lung = system: NCI-H226 lung
NCI-H23 lung = system: NCI-H23 lung
NCI-H460 lung = system: NCI-H460 lung
NCI-H522 lung = system: NCI-H522 lung
NCI/ADR-RES ovarian = system: NCI/ADR-RES ovarian
OVCAR-3 ovarian = system: OVCAR-3 ovarian
OVCAR-4 ovarian = system: OVCAR-4 ovarian
OVCAR-5 ovarian = system: OVCAR-5 ovarian
OVCAR-8 ovarian = system: OVCAR-8 ovarian
PC-3 prostate = system: PC-3 prostate
RPMI-8226 leukemia = system: RPMI-8226 leukemia
RXF 393 renal = system: RXF 393 renal
SF-268 CNS = system: SF-268 CNS
SF-295 CNS = system: SF-295 CNS
SF-539 CNS = system: SF-539 CNS
SK-MEL-2 melanoma = system: SK-MEL-2 melanoma
SK-MEL-28 melanoma = system: SK-MEL-28 melanoma
SK-MEL-5 melanoma = system: SK-MEL-5 melanoma
SK-OV-3 ovarian = system: SK-OV-3 ovarian
SN12C renal = system: SN12C renal
SNB-19 CNS = system: SNB-19 CNS
SNB-75 CNS = system: SNB-75 CNS
SW-620 colon = system: SW-620 colon
T-47D breast = system: T-47D breast
TK-10 renal = system: TK-10 renal
U251 CNS = system: U251 CNS
UACC-257 melanoma = system: UACC-257 melanoma
UACC-62 melanoma = system: UACC-62 melanoma
UO-31 renal = system: UO-31 renal

`CC1COCCN1CC#CCOC(=O)c1cc2ccccc2oc1=O` (stereo not given) gave a GI50 (786-0 renal) greater than 100 µM, a TGI (786-0 renal) greater than 100 µM and a GI50 (A549 NSCLC) greater than 100 µM. The TGI (A549 NSCLC) was greater than 100 µM, the GI50 (ACHN renal) was greater than 100 µM and the TGI (ACHN renal) was greater than 100 µM. For the same compound, the GI50 (BT-549 breast) was greater than 100 µM, the TGI (BT-549 breast) was greater than 100 µM and the GI50 (CAKI-1 renal) was greater than 100 µM. For the same compound, the TGI (CAKI-1 renal) was greater than 100 µM, the GI50 (CCRF-CEM leukemia) was greater than 100 µM and the TGI (CCRF-CEM leukemia) was greater than 100 µM. The GI50 (COLO 205 colon) was greater than 100 µM, the TGI (COLO 205 colon) was greater than 100 µM and the GI50 (DU-145 prostate) was greater than 100 µM. The TGI (DU-145 prostate) was greater than 100 µM, the GI50 (EKVX NSCLC) was greater than 100 µM and the TGI (EKVX NSCLC) was greater than 100 µM. For the same compound, the GI50 (HCC-2998 colon) was greater than 100 µM, the TGI (HCC-2998 colon) was greater than 100 µM and the GI50 (HCT-116 colon) was greater than 100 µM. For the same compound, the TGI (HCT-116 colon) was greater than 100 µM, the GI50 (HCT-15 colon) was greater than 100 µM and the TGI (HCT-15 colon) was greater than 100 µM. For the same compound, the GI50 (HL-60(TB) leukemia) was greater than 100 µM, the TGI (HL-60(TB) leukemia) was greater than 100 µM and the GI50 (HOP-62 NSCLC) was greater than 100 µM. The TGI (HOP-62 NSCLC) was greater than 100 µM, the GI50 (HOP-92 NSCLC) was 72.5 µM and the TGI (HOP-92 NSCLC) was greater than 100 µM. For the same compound, the GI50 (HS 578T breast) was 62.4 µM, the TGI (HS 578T breast) was greater than 100 µM and the GI50 (HT29 colon) was greater than 100 µM. For the same compound, the TGI (HT29 colon) was greater than 100 µM, the GI50 (IGROV1 ovarian) was greater than 100 µM and the TGI (IGROV1 ovarian) was greater than 100 µM. It also gave a GI50 (K-562 leukemia) greater than 100 µM, a TGI (K-562 leukemia) greater than 100 µM and a GI50 (KM12 colon) greater than 100 µM. For the same compound, the TGI (KM12 colon) was greater than 100 µM, the GI50 (LOX IMVI melanoma) was greater than 100 µM and the TGI (LOX IMVI melanoma) was greater than 100 µM. The GI50 (MALME-3M melanoma) was greater than 100 µM, the TGI (MALME-3M melanoma) was greater than 100 µM and the GI50 (MCF7 breast) was greater than 100 µM. It also gave a TGI (MCF7 breast) greater than 100 µM, a GI50 (MDA-MB-231 breast) greater than 100 µM and a TGI (MDA-MB-231 breast) greater than 100 µM. It also gave a GI50 (MDA-MB-435) greater than 100 µM, a TGI (MDA-MB-435) greater than 100 µM and a GI50 (MOLT-4 leukemia) greater than 100 µM. For the same compound, the TGI (MOLT-4 leukemia) was greater than 100 µM, the GI50 (NCI-H226 lung) was greater than 100 µM and the TGI (NCI-H226 lung) was greater than 100 µM. For the same compound, the GI50 (NCI-H23 lung) was greater than 100 µM, the TGI (NCI-H23 lung) was greater than 100 µM and the GI50 (NCI-H460 lung) was greater than 100 µM. It also gave a TGI (NCI-H460 lung) greater than 100 µM, a GI50 (NCI-H522 lung) greater than 100 µM and a TGI (NCI-H522 lung) greater than 100 µM. For the same compound, the GI50 (NCI/ADR-RES ovarian) was greater than 100 µM, the TGI (NCI/ADR-RES ovarian) was greater than 100 µM and the GI50 (OVCAR-3 ovarian) was greater than 100 µM. It also gave a TGI (OVCAR-3 ovarian) greater than 100 µM, a GI50 (OVCAR-4 ovarian) greater than 100 µM and a TGI (OVCAR-4 ovarian) greater than 100 µM. It also gave a GI50 (OVCAR-5 ovarian) greater than 100 µM, a TGI (OVCAR-5 ovarian) greater than 100 µM and a GI50 (OVCAR-8 ovarian) greater than 100 µM. The TGI (OVCAR-8 ovarian) was greater than 100 µM, the GI50 (PC-3 prostate) was greater than 100 µM and the TGI (PC-3 prostate) was greater than 100 µM. For the same compound, the GI50 (RPMI-8226 leukemia) was greater than 100 µM, the TGI (RPMI-8226 leukemia) was greater than 100 µM and the GI50 (RXF 393 renal) was greater than 100 µM. For the same compound, the TGI (RXF 393 renal) was greater than 100 µM, the GI50 (SF-268 CNS) was greater than 100 µM and the TGI (SF-268 CNS) was greater than 100 µM. For the same compound, the GI50 (SF-295 CNS) was greater than 100 µM, the TGI (SF-295 CNS) was greater than 100 µM and the GI50 (SF-539 CNS) was greater than 100 µM. For the same compound, the TGI (SF-539 CNS) was greater than 100 µM, the GI50 (SK-MEL-2 melanoma) was greater than 100 µM and the TGI (SK-MEL-2 melanoma) was greater than 100 µM. For the same compound, the GI50 (SK-MEL-28 melanoma) was greater than 100 µM, the TGI (SK-MEL-28 melanoma) was greater than 100 µM and the GI50 (SK-MEL-5 melanoma) was greater than 100 µM. It also gave a TGI (SK-MEL-5 melanoma) greater than 100 µM, a GI50 (SK-OV-3 ovarian) greater than 100 µM and a TGI (SK-OV-3 ovarian) greater than 100 µM. It also gave a GI50 (SN12C renal) greater than 100 µM, a TGI (SN12C renal) greater than 100 µM and a GI50 (SNB-19 CNS) greater than 100 µM. It also gave a TGI (SNB-19 CNS) greater than 100 µM, a GI50 (SNB-75 CNS) of 83.4 µM and a TGI (SNB-75 CNS) greater than 100 µM. For the same compound, the GI50 (SW-620 colon) was greater than 100 µM, the TGI (SW-620 colon) was greater than 100 µM and the GI50 (T-47D breast) was greater than 100 µM. For the same compound, the TGI (T-47D breast) was greater than 100 µM, the GI50 (TK-10 renal) was greater than 100 µM and the TGI (TK-10 renal) was greater than 100 µM. It also gave a GI50 (U251 CNS) greater than 100 µM, a TGI (U251 CNS) greater than 100 µM and a GI50 (UACC-257 melanoma) greater than 100 µM. The TGI (UACC-257 melanoma) was greater than 100 µM, the GI50 (UACC-62 melanoma) was greater than 100 µM and the TGI (UACC-62 melanoma) was greater than 100 µM. For the same compound, the GI50 (UO-31 renal) was greater than 100 µM and the TGI (UO-31 renal) was greater than 100 µM.
